Here are results for 22 compounds from patent US20260297080A1, “BICYCLIC COMPOUNDS AS CDK INHIBITORS” (BeOne Medicines I GmbH, priority 2022, published 2026).

The IC50 is the concentration at which inhibition is half-maximal. Higher therefore signals lower potency.

Experiment [1] concerns the target CDK2/Cyclin E1 (Homo sapiens, UniProt P24941). Briefly: CDK2/Cyclin E1 Biochemical Assay (TR-FRET), 0.060 mM ATP. Conditions: 0.15 μM Rb (Ser780)-biotin substrate, pH7.0, 60 min preincubation, 120 min reaction, room temperature. The method in brief: (§1)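 Percent inhibition was derived from the 665 nm/620 nm TR-FRET ratio after a 120-minute room-temperature reaction on 0.15 μM Rb (Ser780)-biotin, preceded by 60-minute enzyme–compound preincubation. IC50 came from four-parameter logistic fitting.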

For experiment [2], the target named is CDK1/Cyclin B1 (Homo sapiens, UniProt P06493). Nature of the experiment: CDK1/Cyclin B1 Biochemical Assay (TR-FRET), 0.015 mM ATP. Conditions: 0.15 μM Rb (Ser780)-biotin substrate, pH7.0, 60 min preincubation, 120 min reaction, room temperature. In short, it runs like this: as §1
(In general: Time-resolved FRET reads energy transfer from a long-lived donor to a nearby acceptor.)

CDK1/Cyclin B1, sequence (P06493 whole entry): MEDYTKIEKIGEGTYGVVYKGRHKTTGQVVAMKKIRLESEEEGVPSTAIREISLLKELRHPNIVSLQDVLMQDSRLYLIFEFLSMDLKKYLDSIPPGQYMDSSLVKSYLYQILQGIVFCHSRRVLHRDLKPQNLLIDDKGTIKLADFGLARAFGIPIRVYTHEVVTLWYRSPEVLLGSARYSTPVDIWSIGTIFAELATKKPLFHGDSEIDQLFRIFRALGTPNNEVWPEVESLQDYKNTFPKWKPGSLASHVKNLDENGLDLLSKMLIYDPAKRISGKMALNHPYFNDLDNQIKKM
CDK1/Cyclin B1, sequence (P14635 whole entry partner): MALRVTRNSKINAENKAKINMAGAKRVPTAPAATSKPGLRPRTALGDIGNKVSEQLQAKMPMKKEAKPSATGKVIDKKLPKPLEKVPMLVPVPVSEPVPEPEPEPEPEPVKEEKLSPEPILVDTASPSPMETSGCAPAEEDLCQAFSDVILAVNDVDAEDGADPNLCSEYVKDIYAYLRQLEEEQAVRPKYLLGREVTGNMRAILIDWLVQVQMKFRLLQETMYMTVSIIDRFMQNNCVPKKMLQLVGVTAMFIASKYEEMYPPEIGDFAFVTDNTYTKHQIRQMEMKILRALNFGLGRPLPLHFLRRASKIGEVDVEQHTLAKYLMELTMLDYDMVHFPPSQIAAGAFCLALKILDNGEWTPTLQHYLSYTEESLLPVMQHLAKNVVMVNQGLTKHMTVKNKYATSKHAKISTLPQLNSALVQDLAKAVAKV

Consider `CC(C)NC(=O)O[C@H]1CC[C@@H](c2cc(Nc3cc(Cl)c4c(c3)S(=O)(=O)NC4)n[nH]2)C1` (relative stereo) [Example 184, cis-3-(3-((4-chloro-1,1-dioxido-2,3-dihydrobenzo[d]isothiazol-6-yl)amino)-1H-pyrazol-5-yl)cyclopentyl isopropylcarbamate], for which the IC50 in experiment [1] was determined as 1.5 nM; in experiment [2] it was 4.1 nM.
In the same order, the values of `Cc1cc2c(cc1Nc1cc([C@@H]3CC[C@H](OC(=O)NC(C)C)C3)[nH]n1)S(=O)(=O)NC2` (relative stereo) [Example 185, cis-3-(3-((5-methyl-1,1-dioxido-2,3-dihydrobenzo[d]isothiazol-6-yl)amino)-1H-pyrazol-5-yl)cyclopentyl isopropylcarbamate] are 239 nM and 1420 nM.
In the same order, the values of `CC1(NC(=O)O[C@H]2CC[C@@H](c3cc(Nc4ccc5c(c4F)S(=O)(=O)NC5)n[nH]3)C2)CC1` (relative stereo) [Example 187, cis-3-(3-((7-fluoro-1,1-dioxido-2,3-dihydrobenzo[d]isothiazol-6-yl)amino)-1H-pyrazol-5-yl)cyclopentyl(1-methylcyclopropyl)carbamate] are 0.7 nM and 14 nM.
In the same order, the values of `CC[C@H](C)NC(=O)O[C@H]1CC[C@@H](c2cc(Nc3ccc4c(c3F)S(=O)(=O)NC4)n[nH]2)C1` (relative stereo) [Example 188, cis-3-(3-((7-fluoro-1,1-dioxido-2,3-dihydrobenzo[d]isothiazol-6-yl)amino)-1H-pyrazol-5-yl)cyclopentyl((S)-sec-butyl)carbamate] are 0.8 nM and 29 nM.
As for `CC(C)NC(=O)O[C@H]1CC[C@@H](c2cc(Nc3ccc4c(c3F)S(=O)(=O)N(C)C4)n[nH]2)C1` (relative stereo) [Example 190, cis-3-(3-((7-fluoro-2-methyl-1,1-dioxido-2,3-dihydrobenzo[d]isothiazol-6-yl)amino)-1H-pyrazol-5-yl)cyclopentyl isopropylcarbamate], the figures for the IC50 in experiment [1] and in experiment [2] were 8.1 nM and 328 nM, respectively.
Consider `COCCN1Cc2ccc(Nc3cc([C@@H]4CC[C@H](OC(=O)NC(C)C)C4)[nH]n3)c(F)c2S1(=O)=O` (relative stereo) [Example 191, cis-3-(3-((7-fluoro-2-(2-methoxyethyl)-1,1-dioxido-2,3-dihydrobenzo[d]isothiazol-6-yl)amino)-1H-pyrazol-5-yl)cyclopentyl isopropylcarbamate], for which the results for the IC50 in experiment [1] and in experiment [2] were 9.3 nM and 191 nM, respectively.
For `CC(C)NC(=O)O[C@H]1CC[C@@H](c2cc(Nc3ccc4c(c3F)S(=O)(=O)N(CCO)C4)n[nH]2)C1` (relative stereo) [Example 192, cis-3-(3-((7-fluoro-2-(2-hydroxyethyl)-1,1-dioxido-2,3-dihydrobenzo[d]isothiazol-6-yl)amino)-1H-pyrazol-5-yl)cyclopentyl isopropylcarbamate], the 50% inhibitory concentration (IC50) in experiment [1] worked out at 6 nM; in experiment [2] it was 116 nM.
In the same order, the values of `CC(C)NC(=O)O[C@H]1CC[C@@H](c2cc(Nc3ccc4c(c3F)S(=O)(=O)N(C(C)C)C4)n[nH]2)C1` (relative stereo) [Example 193, cis-3-(3-((7-fluoro-2-isopropyl-1,1-dioxido-2,3-dihydrobenzo[d]isothiazol-6-yl)amino)-1H-pyrazol-5-yl)cyclopentyl isopropylcarbamate] are 16 nM and 362 nM.
In the same order, the values of `CC(C)NC(=O)O[C@H]1CC[C@@H](c2cc(Nc3ccc4c(c3)C(C)(C)S(=O)(=O)N4)n[nH]2)C1` (relative stereo) [Example 194, cis-3-(3-((3,3-dimethyl-2,2-dioxido-1,3-dihydrobenzo[c]isothiazol-5-yl)amino)-1H-pyrazol-5-yl)cyclopentyl isopropylcarbamate] are 3.7 nM and 86 nM.
Consider `CN1c2ccc(Nc3cc([C@@H]4CC[C@H](OC(=O)NC5CCC56CC6)C4)[nH]n3)cc2CS1(=O)=O` (relative stereo) [Example 196, cis-3-(3-((1-methyl-2,2-dioxido-1,3-dihydrobenzo[c]isothiazol-5-yl)amino)-1H-pyrazol-5-yl)cyclopentyl spiro[2.3]hexan-4-ylcarbamate], for which the results for the IC50 in experiment [1] and in experiment [2] were 4.3 nM and 47 nM, respectively.
Take `COCC(C)NC(=O)O[C@H]1CC[C@@H](c2cc(Nc3ccc4c(c3)CS(=O)(=O)N4)n[nH]2)C1` (relative stereo) [Example 197, cis-3-(3-((2,2-dioxido-1,3-dihydrobenzo[c]isothiazol-5-yl)amino)-1H-pyrazol-5-yl)cyclopentyl(1-methoxypropan-2-yl)carbamate]: the IC50 in experiment [1] worked out at 12 nM; in experiment [2], 119 nM.
As to `O=C(NCCC(F)(F)F)O[C@@H]1CC[C@H](c2cc(Nc3ccc4c(c3)CS(=O)(=O)N4)n[nH]2)C1` (relative stereo) [Example 198, cis-3-(3-((2,2-dioxido-1,3-dihydrobenzo[c]isothiazol-5-yl)amino)-1H-pyrazol-5-yl)cyclopentyl(3,3,3-trifluoropropyl)carbamate], the IC50 was 18 nM in experiment [1] and 75 nM in experiment [2].
In the case of `CC(C)NC(=O)O[C@H]1CC[C@@H](c2cc(Nc3ccc4c(c3)C3(CCC3)S(=O)(=O)N4)n[nH]2)C1` (relative stereo) [Example 199, cis-3-(3-((2,2-dioxido-1H-spiro[benzo[c]isothiazole-3,1′-cyclobutan]-5-yl)amino)-1H-pyrazol-5-yl)cyclopentyl isopropylcarbamate], the concentration for half-maximal inhibition (IC50) came to 5.5 nM in experiment [1] and 84 nM in experiment [2].
In the same order, the values of `CC(C)NC(=O)O[C@H]1CC[C@@H](c2cc(Nc3ccc4c(c3)C3(CC3)S(=O)(=O)N4)n[nH]2)C1` (relative stereo) [Example 200, cis-3-(3-((2,2-dioxido-1H-spiro[benzo[c]isothiazole-3, 1′-cyclopropan]-5-yl)amino)-1H-pyrazol-5-yl)cyclopentyl isopropylcarbamate] are 5.5 nM and 75 nM.
On to `CC(C)NC(=O)O[C@H]1CC[C@@H](c2cc(Nc3ccc4c(c3)C3(CC3)S(=O)(=O)N4C)n[nH]2)C1` (relative stereo) [Example 201, cis-3-(3-((1-methyl-2,2-dioxido-1H-spiro[benzo[c]isothiazole-3,l′-cyclopropan]-5-yl)amino-1H-pyrazol-5-yl)cyclopentyl isopropylcarbamate], for which the half-inhibitory concentration (IC50) worked out at 11 nM in experiment [1] and 130 nM in experiment [2].
In the same order, the values of `CC(C)NC(=O)O[C@H]1CC[C@@H](c2cc(Nc3ccc4c(c3)CS(=O)(=O)N4C(C)C)n[nH]2)C1` (relative stereo) [Example 202, cis-3-(3-((1-isopropyl-2,2-dioxido-1,3-dihydrobenzo[c]isothiazol-5-yl)amino)-1H-pyrazol-5-yl)cyclopentyl isopropylcarbamate] are 6.2 nM and 98 nM.
In the same order, the values of `CC(C)NC(=O)O[C@H]1CC[C@@H](c2cc(Nc3ccc4c(c3)CS(=O)(=O)N4C3CC3)n[nH]2)C1` (relative stereo) [Example 203, cis-3-(3-((1-cyclopropyl-2,2-dioxido-1,3-dihydrobenzo[c]isothiazol-5-yl)amino)-1H-pyrazol-5-yl)cyclopentyl isopropylcarbamate] are 5.4 nM and 41 nM.
In the same order, the values of `COCCN1c2ccc(Nc3cc([C@@H]4CC[C@H](OC(=O)NC(C)C)C4)[nH]n3)cc2CS1(=O)=O` (relative stereo) [Example 204, cis-3-(3-((1-(2-methoxyethyl)-2,2-dioxido-1,3-dihydrobenzo[c]isothiazol-5-yl)amino)-1H-pyrazol-5-yl)cyclopentyl isopropylcarbamate] are 1.8 nM and 51 nM.
As for `CC(C)NC(=O)O[C@H]1CC[C@@H](c2cc(Nc3ccc4c(c3)CS(=O)(=O)N4CC(F)(F)F)n[nH]2)C1` (relative stereo) [Example 205, cis-3-(3-((2,2-dioxido-1-(2,2,2-trifluoroethyl)-1,3-dihydrobenzo[c]isothiazol-5-yl)amino)-1H-pyrazol-5-yl)cyclopentyl isopropylcarbamate], the concentration for half-maximal inhibition (IC50) in experiment [1] amounted to 7.5 nM; in experiment [2], 41 nM.
For `[2H]C([2H])([2H])N1c2ccc(Nc3cc([C@@H]4CC[C@H](OC(=O)NC(C)C)C4)[nH]n3)cc2CS1(=O)=O` (relative stereo) [Example 206, cis-3-(3-((1-(methyl-d3)-2,2-dioxido-1,3-dihydrobenzo[c]isothiazol-5-yl)amino)-1H-pyrazol-5-yl)cyclopentyl isopropylcarbamate], the IC50 is 6.4 nM in experiment [1] and 63 nM in experiment [2].
Regarding `CC(C)NC(=O)O[C@H]1CC[C@@H](c2cc(Nc3ccc4c(c3)C(C)S(=O)(=O)N4C)n[nH]2)C1` (relative stereo) [Example 207, cis-3-(3-((1,3-dimethyl-2,2-dioxido-1,3-dihydrobenzo[c]isothiazol-5-yl)amino)-1H-pyrazol-5-yl)cyclopentyl isopropylcarbamate], the half-inhibitory concentration (IC50) is 6.6 nM in experiment [1] and 35 nM in experiment [2].
In the same order, the values of `CC(C)NC(=O)O[C@H]1CC[C@@H](c2cc(Nc3ccc4c(c3)CS(=O)(=O)N4C(C)C3COC3)n[nH]2)C1` (relative stereo) [Example 208, cis-3-(3-((1-(1-(oxetan-3-yl)ethyl)-2,2-dioxido-1,3-dihydrobenzo[c]isothiazol-5-yl)amino)-1H-pyrazol-5-yl)cyclopentyl isopropylcarbamate] are 16 nM and 262 nM.
